Experimental data from patent publication US20050143463A1, “Method of inhibiting angiogenesis” (THE QUEEN ELIZABETH HOSPITAL RESEARCH FOUNDATION INC., priority 2002, published 2005).

Key:
[1] = tested on: Human umbilical vein endothelial cells (HUVEC); experiment: HUVEC proliferation assay (tritiated thymidine uptake); type: cell-based; conditions: for HUVEC proliferation (in words) / inhibition at 400 µM: 400 μM concentration; for HUVEC proliferation (in words): tritiated thymidine uptake; for inhibition at 400 µM: percentage of control cells with no added agent (Table 3), read-out: Percentage inhibition of HUVEC proliferation; for inhibition of HUVEC proliferation in vitro, dose dependent (in words): dose dependent manner
Method: Human umbilical vein endothelial cells (HUVEC) were seeded in 96-well flat bottomed tissue culture plates at a density of 2.5-5×10^4 cells/well and treated with various dilutions of agents. Cells were cultured in RPMI medium containing 20% FCS, Penicillin/Streptomycin in a 5% CO2 atmosphere at 37° C. After 24 to 48 hours of incubation, cells were pulsed with 1 μCi of tritiated thymidine for 6 hours. The pulsed cells were trypsinised to detach from the wells and then harvested in a TOMTEC Cell Harvester onto glass fibre filters, which were dried and immersed in scintillation fluid and counted in a Wallac Microbeta scintillation counter. The results were reported as mean cpm±SD.

[2] = tested on: chicken chorioallantoic membrane (CAM); experiment: Chicken chorioallantoic membrane (CAM) assay for angiogenesis; type: in vivo; conditions: for Vein length (%) / Artery length (%) / CAM Increase (%) / Total vessel length (%) / Vein Diameter (%): % of control, Mean ± SEM; for cytotoxicity to the embryo: chicken embryo, CAM assay; for inhibition of angiogenesis in the CAM assay, dose dependent (in words): dose dependent manner; for effect of the lowest dose on vein length, artery length, total vessel length and vein diameter (in words): lowest dose (25 nmol)
Method: Fertilised chicken eggs (HiChick Breeding Co, Kapunda, South Australia) were incubated for three days at 38° C. On Day 3 the embryos were cracked out of the egg and into a cup made of plastic piping, with plastic film stretched over the top to form a hammock for the egg to be suspended in. Two ml of DMEM containing penicillin and streptomycin was added to each cup prior to the egg being added. A petri dish on the top maintained sterility. Incubation continued in a humidified 37° C. incubator.
On Day 4 the chorioallantoic membrane (CAM) begins to grow, and pictures were taken of each embryo at ×5 to measure the CAM area using image analysis software (Video Pro 32, Leading Edge Pty Ltd, South Australia).
Embryos were then grouped according to their CAM area, with a control embryo in each for comparison. Grouping is critical as in these early developmental stages changes in the CAM growth are dramatic. Relatively small differences in size on Day 4 translate to large differences in the CAM on Day 5. Treatment was applied in methylcellulose discs, which were dried under vacuum overnight. The methylcellulose discs were applied to the top of the CAM, and at the beginning of treatment were at least three to four-fold bigger than the CAM area, meaning treatment covered the entire CAM surface.
On Day 5 skim milk with contrast medium was injected into the CAM. Pictures were then taken at various levels of magnification up to ×63. Quantitative measurements were made from ×5 pictures. CAM area, and vein and artery lengths were measured using image analysis (Video Pro 32, Leading Edge Pty Ltd, South Australia). Relative vessel lengths were then calculated as the total length/CAM area. Statistical analysis was made using SigmaStat and OneWay ANOVA with p<0.05 as the level of significance.

[3] = 25 nmol on methylcellulose disc
[4] = 50 nmol on methylcellulose disc
[5] = 100 nmol on methylcellulose disc

CO[C@H]1C[C@@H]2CC[C@@H](C)[C@@](O)(O2)C(=O)C(=O)N2CCCC[C@H]2C(=O)O[C@H]([C@H](C)C[C@@H]2CC[C@@H](O)[C@H](OC)C2)CC(=O)[C@H](C)/C=C(\C)[C@@H](O)[C@@H](OC)C(=O)[C@H](C)C[C@H](C)/C=C/C=C/C=C/1C [rapamycin, reference compound]
% Inhibition of HUVEC proliferation ([1]; 0.1 nM rapamycin, 24 hours (Table 2)): 72.8%
inhibition at 0.0001 µM ([1]; Homo sapiens, HUVEC, 24 h, 0.1 nM rapamycin, 24 hours (Table 2)): 73%
inhibition at 0.001 µM ([1]; Homo sapiens, HUVEC, 24 h, 1 nM rapamycin, 24 hours (Table 2)): ~80%

CCCCCCCCC(C)CCCCCCCCC(=O)O (stereo not shown) [10-MODA, 10-methyloctadecanoic Acid]
Vein length (%) [2, 3]: 88.4 ± 8.8%
Artery length (%) ([2]; 25 nmol): 85.7 ± 6.2%
CAM Increase (%) ([2]; 25 nmol): 101.9 ± 11.2%
Total vessel length (%) ([2]; 25 nmol): 85.7 ± 5.4%
Vein Diameter (%) ([2]; 25 nmol): 82.9 ± 3.0%
Vein length (%) [2, 4]: 85.8 ± 14.1%
Artery length (%) ([2]; 50 nmol): 94.3 ± 6.3%
CAM Increase (%) ([2]; 50 nmol): 120.2 ± 25.5%
Total vessel length (%) ([2]; 50 nmol): 88.9 ± 7.0%
Vein Diameter (%) ([2]; 50 nmol): 90.2 ± 9.8%
number of branching capillaries sprouting from the main vessels ([2]; 100 nmol): reduction
vessel area ([2]; 100 nmol): diminished
Vein length (%) [2, 5]: 70.9 ± 22.5%
CAM Increase (%) ([2]; 100 nmol): 68.2 ± 8.6%
Vein Diameter (%) ([2]; 100 nmol): 76.1 ± 16.2%
cytotoxicity to the embryo [2]: not cytotoxic
inhibition of angiogenesis in the CAM assay, dose dependent (in words) [2]: inhibit angiogenesis
effect of the lowest dose on vein length, artery length, total vessel length and vein diameter (in words) [2]: inhibited

CCC(C)CCCCCCCCCCCCC(=O)O (stereo not shown) [14-methyl hexadecanoic acid]
HUVEC proliferation (in words) [1]: inhibited
inhibition at 400 µM ([1]; Homo sapiens, HUVEC): 41%
inhibition of HUVEC proliferation in vitro, dose dependent (in words) [1]: inhibit the proliferation

CC(C)CCCCCCCCCC(=O)O [11-methyl dodecanoic acid]
HUVEC proliferation (in words) [1]: inhibited
inhibition at 400 µM ([1]; Homo sapiens, HUVEC): 83%
inhibition of HUVEC proliferation in vitro, dose dependent (in words) [1]: inhibit the proliferation

CC(C)CCCCCCCCCCC(=O)O [12-methyl tridecanoic acid]
HUVEC proliferation (in words) [1]: inhibited
inhibition at 400 µM ([1]; Homo sapiens, HUVEC): 35%
inhibition of HUVEC proliferation in vitro, dose dependent (in words) [1]: inhibit the proliferation

CC(C)CCCCCCCCCCCCCC(=O)O [15-methyl hexadecanoic acid]
HUVEC proliferation (in words) [1]: inhibited
inhibition at 400 µM ([1]; Homo sapiens, HUVEC): 63%
inhibition of HUVEC proliferation in vitro, dose dependent (in words) [1]: inhibit the proliferation

CCC(C)CCCCCCCCCC(=O)O (stereo not shown) [11-methyl tridecanoic acid]
HUVEC proliferation (in words) [1]: inhibited
inhibition at 400 µM ([1]; Homo sapiens, HUVEC): 42%
inhibition of HUVEC proliferation in vitro, dose dependent (in words) [1]: inhibit the proliferation

CC(C)CCCCCCCCCCCCCCCC(=O)O [17-MODA, 17-methyloctadecanoic Acid]
Vein length (%) [2, 3]: 81.3 ± 16.8%
Artery length (%) ([2]; 25 nmol): 82.6 ± 18.0%
Total vessel length (%) ([2]; 25 nmol): 81.9 ± 16.9%
Vein Diameter (%) ([2]; 25 nmol): 71.6 ± 13.4%
Vein length (%) [2, 4]: 112.8 ± 9.4%
Artery length (%) ([2]; 50 nmol): 97.0 ± 11.7%
Total vessel length (%) ([2]; 50 nmol): 104.2 ± 10.4%
Vein Diameter (%) ([2]; 50 nmol): 81.3 ± 8.4%
number of branching capillaries sprouting from the main vessels ([2]; 100 nmol): reduction
vessel area ([2]; 100 nmol): diminished
Vein length (%) [2, 5]: 94.3 ± 18.9%
Artery length (%) ([2]; 100 nmol): 97.2 ± 17.4%
Total vessel length (%) ([2]; 100 nmol): 95.9 ± 18.1%
Vein Diameter (%) ([2]; 100 nmol): 70.0 ± 15.0%
cytotoxicity to the embryo [2]: not cytotoxic
inhibition of angiogenesis in the CAM assay, dose dependent (in words) [2]: inhibit angiogenesis
effect of the lowest dose on vein length, artery length, total vessel length and vein diameter (in words) [2]: inhibited

CC(C)CCCCCCCCCCCC(=O)O [13-MTA, 13-methyltetradecanoic Acid]
HUVEC proliferation (in words) [1]: inhibited
inhibition at 400 µM ([1]; Homo sapiens, HUVEC): 19%
inhibition of HUVEC proliferation in vitro, dose dependent (in words) [1]: inhibit the proliferation
number of branching capillaries sprouting from the main vessels ([2]; 100 nmol): reduction
vessel area ([2]; 100 nmol): diminished
cytotoxicity to the embryo [2]: not cytotoxic
inhibition of angiogenesis in the CAM assay, dose dependent (in words) [2]: inhibit angiogenesis
effect of the lowest dose on vein length, artery length, total vessel length and vein diameter (in words) [2]: inhibited

CC(C)CCCCCCCCC(=O)O [10-methyl undecanoic acid]
HUVEC proliferation (in words) [1]: inhibited
inhibition at 400 µM ([1]; Homo sapiens, HUVEC): 84%
inhibition of HUVEC proliferation in vitro, dose dependent (in words) [1]: inhibit the proliferation

CC(C)CCCCCCCCCCCCCCC(=O)O [16-methyl heptadecanoic acid]
HUVEC proliferation (in words) [1]: inhibited
inhibition at 400 µM ([1]; Homo sapiens, HUVEC): 19%
inhibition of HUVEC proliferation in vitro, dose dependent (in words) [1]: inhibit the proliferation

CCC(C)CCCCCCCCCCCCCC(=O)O (stereo not shown) [15-methyl heptadecanoic acid]
HUVEC proliferation (in words) [1]: inhibited
inhibition at 400 µM ([1]; Homo sapiens, HUVEC): 49%
inhibition of HUVEC proliferation in vitro, dose dependent (in words) [1]: inhibit the proliferation

CC(C)CCCCCCCCCCCCC(=O)O [14-MPDA, 14-methylpentadecanoic Acid]
HUVEC proliferation (in words) [1]: inhibited
inhibition at 400 µM ([1]; Homo sapiens, HUVEC): 7%
inhibition of HUVEC proliferation in vitro, dose dependent (in words) [1]: inhibit the proliferation
Vein length (%) [2, 3]: 89.6 ± 10.1%
Artery length (%) ([2]; 25 nmol): 81.3 ± 11.4%
Total vessel length (%) ([2]; 25 nmol): 84.7 ± 8.7%
Vein Diameter (%) ([2]; 25 nmol): 90.8 ± 9.2%
Vein length (%) [2, 4]: 80.9 ± 14.3%
Artery length (%) ([2]; 50 nmol): 81.4 ± 11.7%
Total vessel length (%) ([2]; 50 nmol): 80.9 ± 12.3%
Vein Diameter (%) ([2]; 50 nmol): 81.8 ± 14.1%
number of branching capillaries sprouting from the main vessels ([2]; 100 nmol): reduction
vessel area ([2]; 100 nmol): diminished
Vein length (%) [2, 5]: 63.3 ± 5.1^1%
Artery length (%) ([2]; 100 nmol): 83.5 ± 9.3%
Total vessel length (%) ([2]; 100 nmol): 74.0 ± 6.6%
Vein Diameter (%) ([2]; 100 nmol): 76.3 ± 10.2%
cytotoxicity to the embryo [2]: not cytotoxic
inhibition of angiogenesis in the CAM assay, dose dependent (in words) [2]: inhibit angiogenesis
effect of the lowest dose on vein length, artery length, total vessel length and vein diameter (in words) [2]: inhibited

CCC(C)CCCCCCCCCCCC(=O)O (stereo not shown) [13-methyl pentadecanoic acid]
HUVEC proliferation (in words) [1]: inhibited
inhibition at 400 µM ([1]; Homo sapiens, HUVEC): 21%
inhibition of HUVEC proliferation in vitro, dose dependent (in words) [1]: inhibit the proliferation

16-methyltetradecanoic acid
inhibition of angiogenesis in the CAM assay, dose dependent (in words) [2]: inhibit angiogenesis
